According to patent publication US20240252581A1, “COMPOSITIONS AND METHODS FOR TREATING RESPIRATORY DISTRESS” (S.I.S. SHULOV INNOVATIVE SCIENCE LTD., priority 2021, published 2024):
Where “and” joins values, the source holds several entries; their conditions need not be identical. Equal entries are not always repeated. Square brackets hold non-standard residues; d marks the D form. Peptide text beside a SMILES is read from it. * marks the point of attachment. pGlu = O=C1CC[C@@H](C(=O)O)N1; Octanoyl = CCCCCCCC(=O)*

System: inflammatory cytokines in BALF
Experiment: LPS-induced acute lung injury / ARDS mouse model: BALF cytokine concentrations (multiplex ELISA)
Type: in vivo, BALB/c mice
Design: key to INF-γ / IL-1α / IL-5 / IL-6 / IL-10 / IL-12 / IL-17 / KC / MCP-1 / TNF-α / CXCL10 / RANTES / G-CSF / CCL3: (+) indicates activation; (−) indicates inhibition
Description: In order to test the efficacy of ZEP3 sodium on lung inflammation, the lipopolysaccharide (LPS)-induced acute lung injury model was used. In particular, LPS was administered intratracheally at doses of 10 or 40 mg/kg body weight (BW) corresponding to 0.2 or 0.8 mg/mouse, respectively.
ZEP3 sodium was administered by inhalation (INH) at doses of 25 or 250 mg/kg BW (0.5 or 5 mg/mouse, respectively), or intratracheally (IT) at doses of 5 or 20 mg/kg BW (0.1 or 0.4 mg/mouse, respectively) 6 hours after LPS administration and its effect was measured 72 hours following administration in the branchial alveolar fluid (BALF) using FACS instrumentation.
To detect cytokine release in lungs fluid, cytokine concentrations were assessed in BALF samples using high sensitivity multiplex ELISA assays for: IFN-γ, IL-1α, IL-5, IL-6, IL-10, IL-12 (p70), IL-17A, KC, MCP-1, TNF-α, IP-10, RANTES, G-CSF, MIP-1α and RANTES. ZEP3Na administered intratracheally at 0.1 and 0.4 mg per mouse after instillation of 0.2 mg LPS inhibited the concentration of following interleukins: IL-1α, IL-6, IL-10, IL-12, IL-17, KC, MCP-1, TNF-α and G-CSF.

[1] = Group 9: LPS 0.2 mg + ZEP3Na 0.4 mg IT, BALF, group mean
[2] = Group 9: LPS 0.2 mg + ZEP3Na 0.4 mg IT, BALF, individual mice
[3] = LPS 0.2 mg + ZEP3Na (IT) 0.1 mg, BALF
[4] = LPS 0.2 mg + ZEP3Na (IT) 0.4 mg, BALF
[5] = LPS 0.8 mg + ZEP3Na (INH) 0.5 mg, BALF
[6] = LPS 0.8 mg + ZEP3Na (INH) 5 mg, BALF
[7] = LPS 0.8 mg + ZEP3Na (IT) 0.1 mg, BALF
[8] = LPS 0.8 mg + ZEP3Na (IT) 0.4 mg, BALF

In the case of `CCCCCCCC(=O)NCCCC[C@H](NC(=O)[C@H](Cc1c[nH]c2ccccc12)NC(=O)[C@H](CC(N)=O)NC(=O)[C@@H]1CCC(=O)N1)C(=O)O` [ZEP3Na, pGlu-Asn-Trp-Lys(Octanoyl)-ONa] ([pGlu]NWK(Octanoyl)-OH), the “KC” value [1] is reported as 751.10 pg/mL, the “MCP-1” value [1] is reported as 180.27 pg/mL and the “G-CSF” value [2] is reported as 176.85 pg/mL and 200.57 pg/mL and 585.70 pg/mL and 211.19 pg/mL and 8.45 pg/mL and 138.72 pg/mL and 227.63 pg/mL. For the same compound, the “G-CSF (pg/ml)” value [2] was “undetected”, the “IL-12 (p70)” value [2] was 408.22 pg/ml and 471.74 pg/ml and 15.41 pg/ml (2×) and 262.69 pg/ml and 11.53 pg/ml and 8.09 pg/ml and 115.45 pg/ml and 140.60 pg/ml and the “IL-17A” value [2] was 386.05 pg/mL and 1361.97 pg/mL and 15.26 pg/mL and 3386.75 pg/mL and 22.20 pg/mL and 4.57 pg/mL and 2.99 pg/mL and 21.13 pg/mL and 55.67 pg/mL. For the same compound, the “KC” value [2] was 1154.03 pg/mL and 1559.44 pg/mL and 1143.16 pg/mL and 1153.90 pg/mL and 127.59 pg/mL and 63.82 pg/mL and 75.31 pg/mL and 656.41 pg/mL and 826.24 pg/mL, the “MCP-1” value [2] was 240.17 pg/mL and 115.81 pg/mL and 823.17 pg/mL and 151.55 pg/mL and 14.15 pg/mL and 102.63 pg/mL and 174.95 pg/mL and the “MCP-1 (pg/ml)” value [2] was “undetected”. The CXCL10 [3] was “−”, the G-CSF [3] was “−” and the IL-1α [3] was “−”. The IL-6 [3] was “−”, the IL-10 [3] was “−” and the IL-12 [3] was “−”. For the same compound, the IL-17 [3] was “−”, the KC [3] was “−” and the MCP-1 [3] was “−”. For the same compound, the TNF-α [3] was “−”, the CXCL10 [4] was “−” and the G-CSF [4] was “−”. The IL-1α [4] was “−”, the IL-6 [4] was “−” and the IL-10 [4] was “−”. For the same compound, the IL-12 [4] was “−”, the IL-17 [4] was “−” and the KC [4] was “−”. The MCP-1 [4] was “−”, the TNF-α [4] was “−” and the CCL3 [5] was “−”. For the same compound, the CXCL10 [5] was “−”, the G-CSF [5] was “−” and the IL-1α [5] was “−”. The IL-5 [5] was “−”, the IL-6 [5] was “−” and the IL-10 [5] was “+”. The IL-12 [5] was “−”, the IL-17 [5] was “−” and the INF-γ [5] was “−”. For the same compound, the KC [5] was “−”, the MCP-1 [5] was “−” and the RANTES [5] was “−”. For the same compound, the TNF-α [5] was “−”, the CCL3 [6] was “−” and the CXCL10 [6] was “−”. The G-CSF [6] was “−”, the IL-1α [6] was “−” and the IL-5 [6] was “−”. The IL-6 [6] was “−”, the IL-10 [6] was “+” and the IL-12 [6] was “−”. The IL-17 [6] was “−”, the INF-γ [6] was “−” and the KC [6] was “−”. For the same compound, the MCP-1 [6] was “−”, the RANTES [6] was “−” and the TNF-α [6] was “−”. The IL-12 [7] was “−”, the TNF-α [7] was “−” and the IL-12 [8] was “−”. For the same compound, the TNF-α [8] was “−”, the “levels of INF-γ, IL-1α, IL-5, IL-6, IL-12, IL-17, KC, MCP-1, TNF-α, CXCL10, RANTES, G-CSF, and CCL3” value (administered by inhalation following LPS instillation) was “significantly inhibited the expression and reduced the levels” and the “levels of IL-1α, IL-6, IL-10, IL-12, IL-17, KC, MCP-1, TNF-α, CXCL10, and G-CSF” value (administered intratracheally following LPS instillation) was “significantly inhibited the expression and reduced the levels”. The “concentration of IL-1α, IL-6, IL-10, IL-12, IL-17, KC, MCP-1, TNF-α and G-CSF” value (intratracheally at 0.1 and 0.4 mg per mouse after instillation of 0.2 mg LPS, BALF) was “inhibited”.
